Experimental data taken from patent US4515708A, “Corrosion inhibitors” (Exxon Research & Engineering Co., priority 1982, dated 1985).
Like-named read-outs stand apart in the source and are kept apart here.

What was measured:
[1] = Corrosion Test 1 (dynamic wheel test; 3 wt% brine/Mentor 28; CO2 + H2S); conditions: 24 h, 70° C., 30% solution
Procedure: (§1) For each compound three mild steel coupons (approximately 100 mm×12 mm×1.5 mm) were tested at each concentration. Each was contacted in a 250 ml bottle with 200 ml of a test fluid either saturated with a carbon dioxide at 20° C. or containing 100 ppm hydrogen sulphide or having both CO2 and H2 S present in those amounts. The test fluid was treated with a 30% aqueous solution of the compound under test at 2, 10, 50 and 250 ppm except where indicated to the contrary. The coupon was subjected to a dynamic wheel test in which the bottle was mounted radially on the periphery of 650 mm diameter wheel which was rotated at about 40 rpm for 24 hours at 70° C. The weight loss was obtained, and also measured in a control experiment where no inhibitor was present. From this the % protection was calculated as % reduction in weight loss.
Test fluid: 100 ml 3 wt% brine/100 ml Mentor 28 (Mentor®28 is a depolarised kerosene available from Exxon Chemical Company)
(§2) Corrosives: Saturated CO2 +100 ppm H2 S

[2] = Corrosion Test 3 (dynamic wheel test; 3 wt% brine + Mentor 28; CO2 only); conditions: 24 h, 70° C.
Procedure: as §1
(§3) Test fluid: 100 ml 3 wt% brine+100 ml Mentor 28
Corrosives: Saturated CO2 only

[3] = Corrosion Test 4 (dynamic wheel test; 3 wt% brine + Mentor 28; H2S); conditions: 24 h, 70° C.
Procedure: as §1, §3
Corrosives: 100 ppm H2 S (prior nitrogen purge)

[4] = Film persistency corrosion test; conditions: CO2 + H2S, 24 h, 70° C.
Procedure: […] A test fluid made up of equal proportions of 3 wt% brine and Mentor 28 was used, saturated with CO2 and containing 100 ppm H2 S as corrosives. Coupons were used as described for the previous corrosion test. A coupon was first immersed in test fluid containing corrosives and the inhibitor under test for 1 hour, then rinsed for 1 hour in a similar test fluid containing no inhibitor and finally transferred to a further test fluid again containing no inhibitor in which the dynamic wheel test was carried out at 70° C. for 24 hours.

[5] = Emulsion Test (3 wt% brine / heptane); type: physicochemical; set-up: Emulsion thickness after 30 mins: unit not given here; conditions: for Time to break emulsion: 1 ml of 35 wt% IPA solution, 50 ml 3 wt% brine, 50 ml heptane; for Appearance after 30 mins, hydrocarbon: hydrocarbon layer; for Appearance after 30 mins, water: water layer
Procedure: 1 ml of the solutions used for Test A was shaken with 50 ml of 3 wt% brine and 50 ml of heptane for 1 minute in a 150 ml bottle. The emulsion was observed, and the time noted for the emulsion to break and form a clean interface with clear liquid layers. If at 30 minutes this had not occurred, the appearance was recorded together with the thickness of any persisting emulsion.

[6] = Solubility Test (35 wt% solution in isopropylalcohol shaken with water, brine or heptane); type: physicochemical
Procedure: The active material under test was made up into a 35 wt% solution in isopropylalcohol (IPA). 0.3 ml of this solution was shaken with 10 ml of each of the liquids in which solubility is to be tested: water, 5 wt% NaCl solution (brine) and heptane. The mixture was observed after 30 minutes and 24 hours.

[7] = Corrosion Test 2 (dynamic wheel test; 3 wt% brine; CO2 + H2S); conditions: 24 h, 70° C.
Procedure: as §1
Test Fluid: 200 ml 3 wt% brine
as §2

[8] = 50 ml 3 wt% brine/50 ml heptane
[9] = 0.3 ml of 35 wt% IPA solution in 10 ml water, observed after 30 minutes and 24 hours

SMILES	% Protection ([1]; 2 ppm)	% Protection ([1]; 10 ppm)	% Protection ([1]; 50 ppm)	% Protection ([1]; 250 ppm)	% Protection ([2]; 2 ppm)	% Protection ([2]; 10 ppm)	% Protection ([2]; 250 ppm)	% Protection ([3]; 2 ppm)	% Protection ([3]; 10 ppm)	% Protection ([3]; 50 ppm)	% Protection ([3]; 250 ppm)	% Protection ([4]; 500 ppm)	% Protection ([4]; 1000 ppm)	% Protection ([4]; 5000 ppm)	Time to break emulsion [5]	Appearance after 30 mins, hydrocarbon [5, 8]	Appearance after 30 mins, water [5, 8]	% Protection ([7]; 2 ppm)	% Protection ([7]; 10 ppm)	% Protection ([7]; 50 ppm)	other results
CCCCCCNCCc1ccncc1 [Example 22]	41%	67%	81%	87%	9%	5%	7%	8%	50%	67%	67%	19%	20%	23%	1 min	clear	clear	11%	9%	41%	% Protection ([2]; 50 ppm): 13%; SOLUBILITY IN: Brine [6]: S; SOLUBILITY IN: Heptane [6]: S; SOLUBILITY IN: Water [6]: S; % Protection ([7]; 250 ppm): 74%
CCCCCCCCCCCCCCCCCCNCCc1ccncc1 [Example 28]	8%	23%	48%	87%	8%	12%	9%	2%	3%	49%	56%	16%	16%	23%	> 30 min	hazy	clear	11%	94%	96%	Emulsion thickness after 30 mins [5, 8]: 4.0; SOLUBILITY IN: Water [6, 9]: S; % Protection ([7]; 250 ppm): 95%
CCCCCCCCCCCCNCCc1ccccn1 [Example 4]	21%	73%	93%	94%	0%	0%	61%	20%	42%	50%	66%	14%	14%	14%	> 30 min	hazy	hazy	24%	94%	95%	% Protection ([2]; 50 ppm): 7%; SOLUBILITY IN: Heptane ([6]; 0.3 ml of 35 wt% IPA solution in 10 ml heptane, 30 minutes and 24 hours): S; SOLUBILITY IN: Water [6, 9]: S; % Protection ([7]; 250 ppm): 96%
